According to patent US5656613A, “Treatment of hyperandrogenic conditions” (Merck & Co., Inc., priority 1995, dated 1997):
Entries after “also recorded” stand apart in the source; their conditions may differ. Where two headings read alike, the source gives them in different places.

Tests used:
[1] = molecular target: T1, human prostate (type 2) isozyme of 5α-reductase (Homo sapiens, UniProt P31213); assay: Dissociation of enzyme-[^3 H]finasteride complex (release of radioactivity), type 2; format: binding; set-up: host or cells: native human prostate tissue or recombinant from a baculovirus expression system; considered interchangeable; conditions: 21.9 nM enzyme, 9.33 nM [^3 H]finasteride, 466 μM NADPH, pH 7.2, 37° C.
T1 sequence (P31213 1-254): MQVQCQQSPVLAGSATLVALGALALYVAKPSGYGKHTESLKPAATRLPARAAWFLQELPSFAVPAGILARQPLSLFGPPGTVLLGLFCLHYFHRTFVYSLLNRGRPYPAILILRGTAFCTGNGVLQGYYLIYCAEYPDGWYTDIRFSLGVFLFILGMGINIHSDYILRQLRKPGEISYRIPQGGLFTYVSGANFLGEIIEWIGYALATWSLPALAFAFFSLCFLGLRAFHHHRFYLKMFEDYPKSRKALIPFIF
Experimental: (§1) The concentrations of bound and free radioactivity were determined by ultrafiltration on 10,000 Da cutoff membranes (AMICON, Centricon-10), which were centrifuged several hours at 4° C.
(§2) Nonspecific binding was assessed by reversing the order of addition, first blocking the […] with excess unlabeled inhibitor before addition of […].

dihydrotestosterone = conditions: clinical trials, cited from earlier work
[2] = molecular target: T1, human prostate (type 2) isozyme of 5α-reductase
Experimental: The rate constant for dissociation of the enzyme-inhibitor complex was determined from the rate of release of radioactivity from enzyme-[^3 H]finasteride complex in the presence of 100-fold excess unlabeled finasteride. The enzyme-[^3 H]finasteride complex was formed in a solution containing excess enzyme: 21.9 nM enzyme (6 mg protein, ~0.04% pure, taken from the relatively homogeneous 100,000×g supernatant fraction). […] After 2 hours, exchange was initiated by making the solution 933 nM in unlabeled finasteride (including 1% ethanol). The solution was divided into aliquots (100 μL) which were incubated at 37° C.; each day a sample was removed and frozen away at -80° C. for future determination of bound and free inhibitor.
To obtain sufficient transformed inhibitor for mass spectral analysis, a preparation of baculovirus-expressed enzyme was employed that consisted of all protein sedimenting between 1,000 to 100,000×g. […] The solution was then dialyzed overnight at 4° C. in 14,000 Da cutoff dialysis tubing (SPECTRAPOR 2) against 2 changes of 4L water containing 1 mM MOPS and 1 mM EDTA at pH 7.20.

[3] = molecular target: T2, human skin (type 1) isozyme of 5α-reductase (Homo sapiens, UniProt P18405); assay: Inhibition of human skin (type 1) 5α-reductase by finasteride; format: biochemical; conditions: type 1, from ratio of rate constants; read-out: steady-state Ki *
T2 construct: made in house
T2 sequence (P18405 1-259): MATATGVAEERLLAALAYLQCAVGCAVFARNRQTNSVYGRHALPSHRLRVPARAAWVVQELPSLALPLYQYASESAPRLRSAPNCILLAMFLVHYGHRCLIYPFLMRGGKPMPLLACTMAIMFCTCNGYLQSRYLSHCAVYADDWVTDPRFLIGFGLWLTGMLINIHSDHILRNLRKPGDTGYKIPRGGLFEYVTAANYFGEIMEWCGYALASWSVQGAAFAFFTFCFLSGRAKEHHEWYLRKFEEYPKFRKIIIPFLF
Source text: (§3) When tissue extracts were the source of enzyme, the quenched reactions were clarified by centrifugation at 10,000×g before analysis.
(§4) The human isozymes were employed exclusively in this research. The native isozymes were from scalp (type 1 ) or prostate (type 2) tissues, and the recombinant forms were produced by a baculovirus expression system. Except where specified, all data refer to the prostate (type 2) isozyme, the primary target of finasteride. All of the experiments described in this application were also conducted with the recombinant type 1 isozyme, either in parallel or for confirmation.
(§5) The data for slow-binding inhibition were analyzed as reviewed by Morrison et al., Adv. Enzymol. 61:201-301 (1988). The kinetic model is shown in the Description of the Invention. The time courses were fit to an integrated first-order rate equation (Equation 1), where A is product concentration, .nu.o is the initial velocity, .nu.s is the infinite-time velocity, and kobs is the first-order rate constant for progression of the enzyme between the two equilibrium states.

[4] = molecular target: T1, human prostate (type 2) isozyme of 5α-reductase; assay: Slow-binding / fixed-time inhibition of human prostate (type 2) 5α-reductase by finasteride; format: biochemical; set-up: host or cells: native human prostate tissue or recombinant from a baculovirus expression system; considered interchangeable
Experimental: as §3
Where indicated, measurements were also conducted under conditions that have more traditionally been employed for this enzyme at pH 5.50 and 37° C.
The enzyme was either used directly as a crude cell homogenate, or isolated as microsomal suspensions by differential centrifugation. In general, the tissue or cell pellet was combined with an equal volume of buffer and dispersed using a high shear force homogenizer (POLYTRON, high speed) for several minutes in an ice bath below 10° C. […] Saturating levels of cofactor were usually included to improve enzyme stability.
as §4, §5
vo =kcat (E)(S)/(Km (1+([…]))+S) Equation 2
The rate constant for conversion of the weak complex to the high-affinity one, k2, was obtained by nonlinear regression to Equation 3, which also is a function of Ki.
[(I/Ki)/(1+(S/Km)+(I/Ki)]Equation 3

[5] = molecular target: T2, human skin (type 1) isozyme of 5α-reductase; conditions: cited from earlier work
[6] = molecular target: T1, human prostate (type 2) isozyme of 5α-reductase; set-up: host or cells: native human prostate tissue or recombinant from a baculovirus expression system; considered interchangeable; conditions: cited from earlier work
[7] = molecular target: T1, human prostate (type 2) isozyme of 5α-reductase; assay: Release of radiolabel on denaturation of enzyme-[^3 H]finasteride complex; format: binding; set-up: host or cells: native human prostate tissue or recombinant from a baculovirus expression system; considered interchangeable
Experimental: as §1, §2

CC(C)(C)NC(=O)[C@H]1CC[C@H]2[C@@H]3CC[C@H]4NC(=O)C=C[C@]4(C)[C@H]3CC[C@]12C [Compound 1, 17β-(N-tert-butylcarbamoyl)-3-oxo-4-aza-5α-androst-1-ene-3-one]
inhibition on complex formation [1]: 36%
time for dihydrotestosterone to return to basal levels after withdrawal (dihydrotestosterone; Stoner, Gormley et al.): two
reduction of dihydrotestosterone levels (dihydrotestosterone; circulating concentrations comparable to Ki): reduced levels of dihydrotestosterone to values approaching those found in individuals genetically deficient in the prostate isozyme
inhibition on complex formation ([2]; 1.39 μM enzyme, 1.14 μM finasteride, 573 μM NADPH, pH 7.20, 45 min): 73%
[^3 H]-1,2-dihydrofinasteride as share of free tritium released from the [^3 H]finasteride-enzyme complex ([2]; off-rate experiment, one month): > 95%
untransformed [^3 H]finasteride released ([2]; off-rate experiment, one month): no untransformed [^3 H]finasteride was detected
Ki [3]: < 0.2 nM
halflife for dissociation (or turnover) of enzyme-inhibitor complex, predicted from association rate ([4]; 37° C., assuming Ki * <100 pM): > 6 h
halflife of conversion to high-affinity complex ([4]; assuming minimum Ki): < 30 s
suppression of activity at infinite time ([4]; lowest practical concentrations of finasteride (2 nM)): nearly complete suppression of the activity
Ki for the preliminary complex (theoretical line, minimum value) ([4]; type 2): 100 nM
Ki ([4]; type 2 enzyme, read-out: overall equilibrium constant Ki *): < 0.1 nM
second-order rate constant for formation of complex ([5]; skin (type 1) isozyme, Tian et al.): 4000 M⁻¹ s⁻¹
Ki ([5]; skin (type 1) isozyme, Tian et al., read-out: Ki of preliminary weak complex): 360 nM
inhibition of type 1 isozyme ([5]; skin, listed as finasteride): not a significant inhibitor of human skin (type 1 ) isozyme at doses employed in the treatment of BPH; also recorded: relatively insensitive to finasteride
Ki ([6]; Faller et al., native human prostate enzyme, pH 7.0, read-out: dissociation constant Ki): > 150 nM
mode of inhibition ([6]; fixed-time assays, previously shown): competitive with testosterone
Ki ([6]; human prostate enzyme, as first perceived in fixed-time assays, read-out: Ki (simple, rapidly-reversible inhibitor)): 26 nM
inhibition of type 2 isozyme ([6]; prostate): potently inhibited by finasteride
Ki ([6]; read-out: Ki of essentially irreversible enzyme-inhibitor complex, Faller et al., human prostate isozyme): < 1 nM
radiolabel released on denaturation ([7]; 7M guanidine hydrochloride): > 99%
radiolabel released on denaturation ([7]; 45% aqueous ethanol): > 77%
radiolabel released on denaturation ([7]; boiling water bath, 2 minutes): > 96%
